The subject of assay [1] is E. coli K-12 BW25113 carrying ASKA plasmids. The assay is described as follows: microbe, parasite or virus in culture. It is filed as cell-based, Escherichia coli. The note with it: MS medium + 10 µg mL−1 CHL + 500 µM IPTG, 5 × 10^5 cells, 16–18 h, 37 °C. In a few lines:
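E. coli BW25113 transformed with the pooled ASKA ORF overexpression library, or empty-vector control, grown with CHL, induced with IPTG.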

Assay [2] concerns K. pneumoniae ATCC 10031. It is filed as cell-based, Klebsiella pneumoniae. The note with it: starting strain; broth dilution, MS medium, 37 °C, 18 h. On the procedure: (§1) Unless otherwise indicated, we used E. coli K-12 BW25113 in all high-throughput experiments. To investigate the impact of mutation rate on evolution of AMP resistance, we initiated laboratory evolution with a mutator strain E. coli mutD5 that carries mutations in the dnaQ gene (L73W and A164V).
(§2) MICs were determined using a standard serial broth dilution technique. Briefly, 11-step serial dilutions were prepared in 96-well microtiter plates with three replicates per strain and antimicrobial compound. Each experiment was repeated at least twice. 5 × 10^5 cells/mL were inoculated into each well, and the plates were incubated at 30 °C in case of E. coli K-12 BW25113, and its antibiotic and AMP-adapted lines, or 37 °C in case of the other bacterial species. Plates were shaken at 300 r.p.m. during incubation for 24 and 18 h, respectively. Cell growth was monitored by measuring the optical density (OD600 value, Biotek Synergy 2 microplate reader was used for this purpose). […] Relative MIC was calculated as follows: MICrelative = MICevolved/MICcontrol.
Background: In broth dilution the organism is exposed to a series of concentrations in liquid medium.

Assay [3] has as its system E.coli K-12 BW25113. Type of assay: cell-based, Escherichia coli. The note with it: for MIC (freshly prepared AMP): plates inoculated immediately; for MIC (pre-incubated AMP): plates pre-incubated 72 hours before inoculation. How it is done: as §2
Supplementary Table 7- Effect of incubation time on the minimum inhibitory concentration (MIC) of AMPs. We tested whether the prolonged incubation time can affect the MIC of AMPs. To test this, two sets of AMP containing MIC plates were prepared in parallel. The first set was immediately inoculated with E.coli K-12 BW25113, while the second set was pre-incubated 72 hours before inoculation with the […]
observed in the MIC between freshly prepared and pre-incubated plates. […]

Assay [4] concerns E. coli ATCC 25922. It is filed as cell-based, Escherichia coli. The following applies: starting strain; broth dilution, MS medium, 37 °C, 18 h. On the procedure:
as §1, §2

Assay [5] concerns E. coli K-12 BW25113. The assay is described as follows: microbe, parasite or virus in culture. It is filed as cell-based, Escherichia coli. The following applies: starting wild-type strain of the evolution experiment; broth dilution, MS medium, 5 × 10^5 cells/mL, 30 °C, 24 h, MIC = OD600 < 0.05.
Assay [6] relates to E. coli ATCC 25922, S. enterica LT2, K. pneumoniae ATCC 10031, A. baumannii ATCC 17978. The assay is described as follows: Laboratory evolution in pathogenic bacteria, statements for all four pathogens together. Type of assay: cell-based. From the text: The tested pathogens initially sensitive to the AMPs and the antibiotics included Escherichia coli (ATCC® 25922™) (abbreviated as E. coli ATCC 25922), Salmonella enterica subsp. enterica serovar Typhimurium LT2 (abbreviated as S. enterica LT2), Klebsiella pneumoniae subsp. pneumoniae (Schroeter) Trevisan (ATCC® 10031™) (abbreviated as K. pneumoniae ATCC 10031) and Acinetobacter baumannii Bouvet and Grimont (ATCC® 17978™) (abbreviated as A. baumannii ATCC 17978).
The evolutionary protocol was designed to avoid population extinction and to ensure that populations with the highest level of resistance were propagated further. Starting with a subinhibitory drug concentration (Supplementary Data 8), resulting in ~50% growth inhibition, 10 parallel populations per drug were allowed to grow in Minimal Salts medium for 72 h and 300 r.p.m. E. coli K-12 BW25113 and E. coli mutD5 populations were incubated at 30 °C, while E. coli ATCC 25922, S. enterica LT2, K. pneumonia ATCC 10031, and A. baumannii ATCC 17978 were incubated at 37 °C. […] Prior to each transfer, cell growth was monitored by measuring the optical density at 600 nm (OD600 value, Biotek Synergy 2 microplate reader). Only populations with the highest drug concentration (and reaching OD600 > 0.2) were selected for further evolution. A chess-board layout was used on the plate to monitor potential cross-contamination events. […] E. coli mutD5 was adapted to TPII, also in 10 parallel evolving populations.
MICs were determined using a standard serial broth dilution technique. Briefly, 11-step serial dilutions were prepared in 96-well microtiter plates with three replicates per strain and antimicrobial compound. Each experiment was repeated at least twice. […] Cell growth was monitored by measuring the optical density (OD600 value, Biotek Synergy 2 microplate reader was used for this purpose). […] Relative MIC was calculated as follows: MICrelative = MICevolved/MICcontrol.

For assay [7], the system named is A. baumannii ATCC 17978. Type of assay: cell-based, Acinetobacter baumannii. The following applies: starting strain; broth dilution, MS medium, 37 °C, 18 h. On the procedure:
as §1, §2

Assay [8] relates to S. enterica LT2. It is filed as cell-based, Salmonella enterica subsp. enterica serovar Typhimurium. The note with it: starting strain; broth dilution, MS medium, 37 °C, 18 h. On the procedure: as §1, §2
Where [9] appears, read: time allowed for bacterial growth 24 hours.
[10] abbreviates: time allowed for bacterial growth 48 hours.
[11] abbreviates: time allowed for bacterial growth 72 hours.

Read-outs that look alike come from different tables or passages of the source.

Take “KTKKKFLKKT [PXB, Polymyxin B, AMP used as a last-resort drug in the treatment of multidrug-resistant Gram-negative bacterial infections; from Sigma-Aldrich]”: the “MIC value of E. coli K-12 BW25113 carrying the empty plasmid of the ASKA library” value in assay [1] (Replicate 1), in assay [1] (Replicate 2) and in assay [1] (Replicate 3) was 3.18 µg/mL each time. Also, the “MIC value of E. coli K-12 BW25113 carrying the pooled plasmids of the ASKA library” value in assay [1] (Replicate 1), in assay [1] (Replicate 2) and in assay [1] (Replicate 3) was 3.18 µg/mL each time. The MIC in assay [2] was 2 µg/mL; in assay [4] it was 6 µg/mL; in assay [5], 2.5 µg/mL; in assay [7], 2 µg/mL; in assay [8] it was 8 µg/mL. Besides, the “MIC (freshly prepared AMP)” value in assay [3] (setting [9]), in assay [3] (setting [10]) and in assay [3] (setting [11]) was 4.2 µg/mL throughout. The “MIC (pre-incubated AMP)” value in assay [3] (setting [9]), in assay [3] (setting [10]) and in assay [3] (setting [11]) was 5 µg/mL each time. Moreover, the “resistance after laboratory evolution in pathogens (in words)” value in assay [6] (all four pathogenic species) was “a high level of PXB-resistance has emerged in all pathogens studied”. Moreover, the “increment of resistance level compared to the corresponding wild-type strain” value in assay [6] (certain lines, highest value over the four pathogens) was ≤ 20,000 times.
